Measurements as given in ChEMBL document CHEMBL4138182, “Aminomethylation of heliomycin: Preparation and anticancer characterization of the first series of semi-synthetic derivatives” (Eur J Med Chem, 2018).
Calls of active or inactive are those of the source. The calls are words filed in the database; no cut-off is given here.

Tests used:
[1] = tested on: HCT-116; experiment: Antiproliferative activity against human HCT116 cells after 72 hrs by MTT assay; type: functional, cell-based; settings: HCT-116, 72 h
[2] = tested on: HCT-116; experiment: Antiproliferative activity against p53 deficient human HCT116 cells after 72 hrs by MTT assay; type: functional, cell-based; settings: HCT-116, 72 h
[3] = tested on: K562; experiment: Antiproliferative activity against human K562 cells after 72 hrs by MTT assay; type: functional, cell-based; settings: K562, 72 h
[4] = Antiproliferative activity against human K562/4 cells after 72 hrs by MTT assay; type: functional, cell-based; settings: K562/4, 72 h
[5] = tested on: L1210; experiment: Antiproliferative activity against mouse L1210 cells after 72 hrs by MTT assay; type: functional, cell-based; settings: L1210, 72 h
[6] = tested on: CCRF-CEM; experiment: Antiproliferative activity against human CEM cells after 72 hrs by MTT assay; type: functional, cell-based
[7] = tested on: HeLa; experiment: Antiproliferative activity against human HeLa cells after 72 hrs by MTT assay; type: functional, cell-based
[8] = tested on: HMEC-1; experiment: Antiproliferative activity against HMEC1 cells after 72 hrs by MTT assay; type: cell-based; settings: Homo sapiens, HMEC-1, 72 h
[9] = tested on: Calf thymus DNA; experiment: Binding affinity to calf thymus double stranded DNA at 10 uM by fluorescence spectrophotometer; type: nucleic-acid assay; settings: Bos taurus
[10] = tested on: T-24; experiment: Growth inhibition of human T24 cells after 72 hrs by cell impedance method; type: functional, cell-based; settings: T-24, 72 h
[11] = biological target: T1, DNA topoisomerase 1 (Homo sapiens) (UniProt P11387); experiment: Inhibition of human DNA topoisomerase 1 assessed as decrease in relaxation of pBR322 at 20 uM after 30 to 40 mins by agarose gel electrophoresis
T1 sequence (whole entry): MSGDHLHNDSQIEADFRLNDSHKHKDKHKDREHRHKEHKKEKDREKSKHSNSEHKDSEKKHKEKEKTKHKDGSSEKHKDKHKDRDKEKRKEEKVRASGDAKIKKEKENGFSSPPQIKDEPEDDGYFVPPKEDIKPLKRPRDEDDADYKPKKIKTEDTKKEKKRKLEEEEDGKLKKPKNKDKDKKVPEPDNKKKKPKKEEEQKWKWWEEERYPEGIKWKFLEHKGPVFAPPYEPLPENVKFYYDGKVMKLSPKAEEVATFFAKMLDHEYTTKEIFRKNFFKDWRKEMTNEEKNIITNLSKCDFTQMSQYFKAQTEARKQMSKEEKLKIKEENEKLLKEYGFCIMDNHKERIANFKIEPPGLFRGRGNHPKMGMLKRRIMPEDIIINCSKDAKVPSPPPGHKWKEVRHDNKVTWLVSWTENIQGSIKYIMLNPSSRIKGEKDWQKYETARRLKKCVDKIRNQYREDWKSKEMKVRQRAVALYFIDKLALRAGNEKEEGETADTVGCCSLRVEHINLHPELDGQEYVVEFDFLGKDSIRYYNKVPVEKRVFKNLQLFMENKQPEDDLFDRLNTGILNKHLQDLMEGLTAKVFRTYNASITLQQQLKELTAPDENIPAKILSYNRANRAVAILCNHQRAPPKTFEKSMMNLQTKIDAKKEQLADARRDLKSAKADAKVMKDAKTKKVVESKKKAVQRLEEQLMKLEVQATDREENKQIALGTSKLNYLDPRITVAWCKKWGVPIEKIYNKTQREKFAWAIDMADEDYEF

[12] = tested on: T-24; experiment: Induction of apoptosis n human T24 cells at 1 uM after 24 hrs by annexin V-FITC/propidium iodide staining-based flow cytometric method; type: functional, cell-based
[13] = tested on: T-24; experiment: Induction of apoptosis n human T24 cells assessed as upregulation of Bak levels at 0.5 to 1 uM after 18 hrs by Western blot method; type: functional, cell-based
[14] = tested on: T-24; experiment: Induction of apoptosis n human T24 cells assessed as downregulation of Bcl-2 levels at 0.5 to 1 uM after 18 hrs by Western blot method; type: functional, cell-based
[15] = tested on: T-24; experiment: Induction of apoptosis n human T24 cells assessed as PARP cleavage at 0.5 to 1 uM after 18 hrs by Western blot method; type: functional, cell-based
[16] = tested on: T-24; experiment: Upregulation of total p53 levels in human T24 cells at 0.5 to 1 uM after 18 hrs by Western blot method; type: cell-based; settings: t-24, 18 h
[17] = tested on: T-24; experiment: Induction of reactive oxygen species generation in human T24 cells at 1 uM after 30 mins by H2DCFDA dye-based flow cytometric method; type: functional, cell-based
[18] = tested on: Calf thymus DNA; experiment: Binding affinity to calf thymus DNA; type: nucleic-acid assay; settings: Bos taurus
[19] = Resistance index, ratio of IC50 for human K562/4 cells to IC50 for human K562 cells; type: functional

Compound	IC50 [1] [nM]	IC50 [2] [nM]	IC50 [3] [nM]	IC50 [4] [nM]	IC50 [5] [nM]	IC50 [6] [nM]	IC50 [7] [nM]	IC50 [8] [nM]	Activity [9]	IC50 [10] [nM]	inhibition [11]	Activity [12]	Activity [13]	Activity [14]	Activity [15]	Activity [16]	Activity [17]	Kb [18] [×10⁴ /M]	Ratio IC50 [19]
Cc1cc(O)c2c3c4c(cc(O)c13)C(C)(C)C(=O)c1c(O)cc(O)c(c1-4)C2=O [HELIOMYCIN]	300	100	300	400	700	500	100	500	inactive	26000	inactive	inactive	inactive	inactive	inactive	Toxic	inactive	1.1	–
Cc1cc(O)c2c3c4c(cc(O)c13)C(C)(C)C(=O)c1c(O)c(CNCCO)c(O)c(c1-4)C2=O	500	1000	1300	19400	3800	3300	3600	–	–	–	–	–	–	–	–	–	–	–	20
